Reference: US20160264593A1 (priority 2013, published 2016)
Several values for one entry are separate records, joined by “and”; a condition that tells them apart may be missing. Identical values can stand only once. Entries after “also recorded” stand apart in the source; their conditions may differ. Like-named read-outs stand apart in the source and are kept apart here.

Key:
[1] = system: glioblastoma (U-87) cells; experiment: WST cell viability assay, U-87 MG; assay type: cell-based; conditions: Homo sapiens, U-87 MG
[2] = system: breast cancer (2LMP) cells; experiment: WST cell viability assay, 2LMP
From the text: IC50 values were obtained for cytotoxicity against breast cancer (2LMP), glioblastoma (U-87) and lung cancer (A549) cells (See Table 5 and FIGS. 3-5).

PP2A [3] = experiment: PP2A activity in mouse livers after IP dosing (PP2A immunoprecipitation phosphatase assay, malachite green); assay type: in vivo, Balb/c mice
Method in brief: (§1)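 Female Balb/c mice (6-8 weeks) were dosed IP with compound in 4% sodium bicarbonate; brain and liver were harvested 3 h and 6 h post-dose. PP2A was immunoprecipitated from 240 μg lysate with anti-PP2A, using normal IgG as control. Phosphatase activity on a threonine phosphopeptide was read by malachite green absorbance against a phosphate standard curve.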

lung cancer (A549) cells = experiment: WST cell viability assay, A549; assay type: cell-based; conditions: Homo sapiens, A549, read-out: IC50 A549
PP2A [4] = experiment: PP2A activity in mouse brains after IP dosing (PP2A immunoprecipitation phosphatase assay, malachite green); assay type: in vivo, Balb/c mice; conditions: for Average Conc. (group of 3 mice) / Average Relative Activity (group, vehicle = 100) / Conc. (phosphate, single reading, per mouse) / Mean Conc. (per mouse) / Mean Conc. less IgG blank (per mouse) / Relative Conc. (per mouse, to vehicle) / Relative PP2A Activity (per mouse, vehicle = 100): brain; for activity of PP2A in brains (statement): high dose IP
Method in brief: as §1

[5] = IP, dose and time not specified
[6] = low dose IP (mpk: 100 0.75, 113 1.1, 151 0.8, 153 0.85, 157 1.0), 3 h, liver
[7] = low dose IP (mpk: 100 0.75, 113 1.1, 151 0.8, 153 0.85, 157 1.0), 6 h, liver
[8] = high dose IP (mpk: 100 1.5, 113 2.2, 151 1.6, 153 1.7, 157 2.0), 3 h
[9] = high dose IP (mpk: 100 1.5, 113 2.2, 151 1.6, 153 1.7, 157 2.0), 6 h
[10] = low dose IP (mpk: 100 0.75, 113 1.1, 151 0.8, 153 0.85, 157 1.0), 3 h
[11] = low dose IP (mpk: 100 0.75, 113 1.1, 151 0.8, 153 0.85, 157 1.0), 6 h

## CCCOC(=O)C1C2CCC(O2)C1C(=O)N1CCN(C)CC1 (stereo not shown) [Compound 153, 3-(4-Methylpiperazine-1-carbonyl)-7-oxa-bicyclo[2,2,1]heptane-2-carboxylic acid propyl ester]
[1]; read-out: IC50 U-87 MG, WST-20131017 (first value of the cell)
  IC50: > 100 µM
[1]; read-out: IC50 U-87 MG, WST-20131024 (second value of the cell)
  IC50: > 100 µM
[2]; WST, 2LMP
  cytotoxicity against breast cancer cells (statement): cytotoxic
[2]; read-out: IC50 2LMP, WST-20131015 (first value of the cell)
  IC50: 69.1 µM
[2]; read-out: IC50 2LMP, WST-20131025 (second value of the cell)
  IC50: 62 µM
PP2A [3]; [5]
  PP2A activity in the liver of mice (statement): inhibited PP2A activity
PP2A [3]; high dose IP, 6 h post treatment
  activity of PP2A in livers as compared with vehicle (statement): significantly inhibited
PP2A [3]; [6]
  Average Conc. (group of 3 mice): 387.63
  Average Relative Activity (group, vehicle = 100): 92.3
  Conc. (phosphate, single reading, per mouse): 445.88 and 461.99 and 441.96 and 438.48 and 396.24 and 414.09
  Mean Conc. (per mouse): 453.94 and 440.22 and 405.17
  Mean Conc. less IgG blank (per mouse): 408.46 and 394.74 and 359.69
  Relative Conc. (per mouse, to vehicle): 0.97 and 0.94 and 0.86
  Relative PP2A Activity (per mouse, vehicle = 100): 97.26 and 93.99 and 85.65
PP2A [3]; [7]
  Average Conc. (group of 3 mice): 364.7
  Average Relative Activity (group, vehicle = 100): 82.05
Lung cancer (A549) cells
  IC50: > 100 µM
PP2A [4]; [5]
  PP2A activity in the brain of mice (statement): inhibited PP2A activity
PP2A [4]; [8]
  Average Conc. (group of 3 mice): 1620.00
  Average Relative Activity (group, vehicle = 100): 65.73
  Conc. (phosphate, single reading, per mouse): 2278.33 and 2174.47 and 1309.82 and 1252.91 and 1475.88 and 1456.77
  Mean Conc. (per mouse): 2226.40 and 1281.36 and 1466.33
  Mean Conc. less IgG blank (per mouse): 2188.37 and 1243.34 and 1428.30
  Relative Conc. (per mouse, to vehicle): 1.01 and 0.57 and 0.66
  Relative PP2A Activity (per mouse, vehicle = 100): 88.79 and 50.45 and 57.95
PP2A [4]; [9]
  Average Conc. (group of 3 mice): 1696.22
  Average Relative Activity (group, vehicle = 100): 61.07
  Conc. (phosphate, single reading, per mouse): 1822.84 and 1778.73 and 1685.64 and 1802.51 and 1690.72 and 1625.07
  Mean Conc. (per mouse): 1800.78 and 1744.07 and 1657.89
  Mean Conc. less IgG blank (per mouse): 1762.76 and 1706.05 and 1619.87
  Relative Conc. (per mouse, to vehicle): 0.72 and 0.70 and 0.66
  Relative PP2A Activity (per mouse, vehicle = 100): 63.47 and 61.43 and 58.32
PP2A [4]; 3 h
  activity of PP2A in brains (statement): more effectively than compound 100
PP2A [4]; 6 h
  activity of PP2A in brains (statement): significantly inhibited; also recorded: more effectively than compound 100
PP2A [4]; high doses IP, 6 h post treatment
  PP2A activity in brains as compared with vehicle: 61%
PP2A [4]; [10]
  Average Conc. (group of 3 mice): 2159.78
  Average Relative Activity (group, vehicle = 100): 87.63
  Conc. (phosphate, single reading, per mouse): 2670.21 and 2571.02 and 1916.94 and 1817.15 and 2140.93 and 2070.60
  Mean Conc. (per mouse): 2620.61 and 1867.04 and 2105.77
  Mean Conc. less IgG blank (per mouse): 2582.58 and 1829.02 and 2067.74
  Relative Conc. (per mouse, to vehicle): 1.19 and 0.84 and 0.95
  Relative PP2A Activity (per mouse, vehicle = 100): 104.78 and 74.21 and 83.90
PP2A [4]; [11]
  Average Conc. (group of 3 mice): 2104.97
  Average Relative Activity (group, vehicle = 100): 75.79
  Conc. (phosphate, single reading, per mouse): 1969.99 and 2070.60 and 2070.20 and 2078.94 and 2387.89 and 2280.36
  Mean Conc. (per mouse): 2020.30 and 2074.57 and 2334.12
  Mean Conc. less IgG blank (per mouse): 1982.27 and 2036.54 and 2296.10
  Relative Conc. (per mouse, to vehicle): 0.81 and 0.83 and 0.94
  Relative PP2A Activity (per mouse, vehicle = 100): 71.37 and 73.33 and 82.67
